{"source": "patent US7166609B2", "about": "“Pyrimidine-4,6-dicarboxylic acid diamides for selectively inhibiting collagenases” (Sanofi-Aventis Deutschland GmbH, priority 2002, dated 2007)", "data": [{"target": "T1, catalytic domain of human collagenase 3 (MMP-13) (Homo sapiens, UniProt P45452)", "T1 construct": "Determining the enzyme activity of the catalytic domain of human collagenase 3 (MMP-13); purchased INVITEK, Berlin 30 100 803", "experiment": "Enzyme activity of the catalytic domain of human collagenase 3 (MMP-13), fluorogenic substrate", "type": "biochemical", "details": "not given", "experimental": "(§1) Determining the enzyme activity of the catalytic domain of human collagenase 3 (MMP-13).\n(§2) Activating the proenzyme:\n(§3) 2 parts by volume of proenzyme are incubated with 1 part by volume of APMA solution at 37° C. for 1.5 hours. The APMA solution is prepared from a 10 mmol/L solution of p-aminophenylmercuric acetate in 0.1 mmol/L NaOH by diluting with 3 parts by volume of tris/HCl buffer, pH 7.5 (see below). The pH is adjusted to between 7.0 and 7.5 by adding 1 mmol/L HCl. After the enzyme has been activated, it is diluted to a concentration of 1.67 μg/ml using the tris/HCl buffer.\n(§4) In order to measure the enzyme activity, 10 μL of enzyme solution are incubated for 15 minutes with 10 μL of a 3% (v/v) buffered solution of dimethyl sulfoxide (reaction 1). In order to measure the enzyme inhibitor activity, 10 μL of enzyme solution are incubated with 10 μL of a 3% (v/v) buffered solution of dimethyl sulfoxide containing the enzyme inhibitor (reaction 2).\n(§5) In the case of both reaction 1 and reaction 2, the enzyme reaction is monitored by fluorescence spectroscopy (328 nm (extinction)/393 nm (emission)) after adding 10 μL of a 3% (v/v) aqueous solution of dimethyl sulfoxide containing 0.75 mmol of the substrate/L.\n(§6) The enzyme activity is depicted as increase in extinction/minute.\n(§7) The effect of the inhibitor is calculated as a percentage inhibition using the following formula: % inhibition=100−[(increase in extinction/minute in reaction 2)/(increase in extinction/minute in reaction 1)×100].\n(§8) The IC50, i.e. the inhibitor concentration which is required for inhibiting the enzyme activity by 50%, is determined graphically by plotting the percentage inhibitions at different inhibitor concentrations.\n(§9) The buffer solution contains 0.05% Brij (Sigma, Deisenhofen, Germany) and 0.1 mol of tris/HCl/L, 0.1 mol of NaCl/L and 0.01 mol of CaCl2/L (pH=7.5). The enzyme solution contains 1.67 μg of the enzyme domain/mL.\n(§10) The substrate solution contains 0.75 mmol/L of the fluorogenic substrate (7-methoxycoumarin-4-yl)acetyl-Pro-Leu-Gly-Leu-3-(2′,4′-dinitrophenyl)-L-2,3-diaminopropionyl-Ala-Arg-NH2 (Bachem, Heidelberg, Germany).", "units": {"IC50": "nM"}, "values": [{"smiles": "Cc1cc(CNC(=O)c2cc(C(=O)NCc3ccc(C(=O)N4CCC(=O)CC4)cc3)ncn2)ccc1F", "note": "[Example 65]", "IC50": 15}, {"smiles": "COc1cccc(CNC(=O)c2cc(C(=O)NCc3ccc(C(=O)N4CCC(=O)CC4)cc3)ncn2)c1", "note": "[Example 64]", "IC50": 10}, {"smiles": "O=C1CCN(C(=O)c2ccc(CNC(=O)c3cc(C(=O)NCc4ccc5c(c4)CCO5)ncn3)cc2)CC1", "note": "[Example 66]", "IC50": 10}]}, {"target": "T1, catalytic domain of human collagenase 3 (MMP-13)", "experiment": "Enzyme activity of the catalytic domain of human collagenase 3 (MMP-13), fluorogenic substrate", "type": "biochemical", "details": "catalytic domain, activated proenzyme, pH 7.5; read-out: IC50 MMP13", "experimental": "as §1, §2, §3, §4, §5, §6, §7, §8, §9, §10", "units": {"IC50": "nM"}, "values": [{"smiles": "Cc1cc(CNC(=O)c2cc(C(=O)NCc3ccc(C(=O)N4CCOCC4)cc3)ncn2)ccc1F", "note": "[Example 87]", "IC50": 24}, {"smiles": "O=C1CN(C(=O)c2ccc(CNC(=O)c3cc(C(=O)NCc4ccc5c(c4)CCO5)ncn3)cc2)CCN1", "note": "[Example 74]", "IC50": 30}, {"smiles": "COc1cccc(CNC(=O)c2cc(C(=O)NCc3ccc(NC(=O)NC(C)(C)C)cc3)ncn2)c1", "note": "[Example 138]", "IC50": 50}, {"smiles": "O=C(NCc1ccc(OCCN2CCOCC2)cc1)c1cc(C(=O)NCc2ccc3c(c2)CCO3)ncn1", "note": "[Example 135]", "IC50": 20}, {"smiles": "CCN(CC)C(=O)c1ccc(CNC(=O)c2cc(C(=O)NCc3cccc(OC)c3)ncn2)cc1", "note": "[Example 3, Pyrimidine-4,6-dicarboxylic acid 4-(4-diethylcarbamoylbenzylamide) 6-(3-methoxybenzylamide)]", "IC50": 4}, {"smiles": "COc1cccc(CNC(=O)c2cc(C(=O)NCc3cccc(NC(=O)OC(C)C)c3)ncn2)c1", "note": "[Example 150]", "IC50": 80}, {"smiles": "COc1cccc(CNC(=O)c2cc(C(=O)NCc3ccc(NC(=O)NS(C)(=O)=O)cc3)ncn2)c1", "note": "[Example 101]", "IC50": 2}, {"smiles": "COc1cccc(CNC(=O)c2cc(C(=O)NCc3ccc(NC(=O)NC(=O)C4CCCCC4)cc3)ncn2)c1", "note": "[Example 125]", "IC50": 4}, {"smiles": "CS(=O)(=O)NC(=O)Nc1ccc(CNC(=O)c2cc(C(=O)NCc3ccc4c(c3)CCO4)ncn2)cc1", "note": "[Example 84]", "IC50": 3.2}, {"smiles": "CC#CCOC(=O)Nc1ccc(CNC(=O)c2cc(C(=O)NCc3cccc(OC)c3)ncn2)cc1", "note": "[Example 139]", "IC50": 10}, {"smiles": "O=C(NCc1ccc(C(=O)N2CCOCC2)cc1)c1cc(C(=O)NCc2ccc(F)c(Cl)c2)ncn1", "note": "[Example 154]", "IC50": 22}, {"smiles": "Cc1cc(CNC(=O)c2cc(C(=O)NCc3ccc(NC(=O)NS(C)(=O)=O)cc3)ncn2)ccc1F", "note": "[Example 83]", "IC50": 5}, {"smiles": "Cc1cc(CNC(=O)c2cc(C(=O)NCc3ccc(C(=O)NC#N)cc3)ncn2)ccc1F", "note": "[Example 78]", "IC50": 3}, {"smiles": "O=C(NCc1ccncc1)c1cc(C(=O)NCc2ccc3c(c2)CCO3)ncn1", "note": "[Example 4, Pyrimidine-4,6-dicarboxylic acid4-[(2,3-dihydrobenzofuran-5-ylmethyl)amide] 6-[(pyridin-4-ylmethyl)amide]]", "IC50": 20}, {"smiles": "C#CCOC(=O)Nc1ccc(CNC(=O)c2cc(C(=O)NCc3cccc(OC)c3)ncn2)cc1", "note": "[Example 144]", "IC50": 9}, {"smiles": "CCCNC(=O)c1ccc(CNC(=O)c2cc(C(=O)NCc3cccc(OC)c3)ncn2)cc1", "note": "[Example 62]", "IC50": 13}, {"smiles": "COc1cccc(CNC(=O)c2cc(C(=O)NCc3ccc(C(=O)NCCN4CCOCC4)cc3)ncn2)c1", "note": "[Example 36]", "IC50": 10}, {"smiles": "COc1cccc(CNC(=O)c2cc(C(=O)NCc3ccc(NC(=O)Nc4cc(Cl)nc(Cl)c4)cc3)ncn2)c1", "note": "[Example 137]", "IC50": 40}, {"smiles": "COc1cccc(CNC(=O)c2cc(C(=O)NCc3ccc(NC(=O)NC(=O)C(C)C)cc3)ncn2)c1", "note": "[Example 127]", "IC50": 3.3}, {"smiles": "CCN(CC)C(=O)c1ccc(CNC(=O)c2cc(C(=O)NCc3ccc(F)c(Cl)c3)ncn2)cc1", "note": "[Example 153]", "IC50": 15}, {"smiles": "COc1cccc(CNC(=O)c2cc(C(=O)NCc3ccc(NC(=O)NS(=O)(=O)c4ccc(C)cc4)cc3)ncn2)c1", "note": "[Example 118]", "IC50": 2.4}, {"smiles": "COc1cccc(CNC(=O)c2cc(C(=O)NCc3ccc(NC(=O)OC(C)C)cc3)ncn2)c1", "note": "[Example 6]", "IC50": 20}, {"smiles": "COc1cccc(CNC(=O)c2cc(C(=O)NCc3ccc(C(=O)N4CCN(c5ccncc5)CC4)cc3)ncn2)c1", "note": "[Example 115]", "IC50": 20}, {"smiles": "Cc1cc(CNC(=O)c2cc(C(=O)NCc3ccc(C(=O)N4CCC(O)CC4)cc3)ncn2)ccc1F", "note": "[Example 69]", "IC50": 32}, {"smiles": "COc1cccc(CNC(=O)c2cc(C(=O)NCc3ccc(C(=O)NC#N)cc3)ncn2)c1", "note": "[Example 86]", "IC50": 2.5}, {"smiles": "COc1cccc(CNC(=O)c2cc(C(=O)NCc3ccc(C(=O)N4CCC(O)CC4)cc3)ncn2)c1", "note": "[Example 67]", "IC50": 15}, {"smiles": "O=C(O)CNC(=O)c1ccc(CNC(=O)c2cc(C(=O)NCc3ccc4c(c3)CCO4)ncn2)cc1", "note": "[Example 98]", "IC50": 20}, {"smiles": "COc1cccc(CNC(=O)c2cc(C(=O)NCc3ccc(C(=O)N4CCOCC4)cc3)ncn2)c1", "note": "[Example 151]", "IC50": 9}, {"smiles": "COc1cccc(CNC(=O)c2cc(C(=O)NCc3ccc(NC(=O)NC(=O)c4cccnc4)cc3)ncn2)c1", "note": "[Example 126]", "IC50": 2.3}, {"smiles": "COc1cccc(CNC(=O)c2cc(C(=O)NCc3ccc(C(=O)N4CCNC(=O)C4)cc3)ncn2)c1", "note": "[Example 73]", "IC50": 25}, {"smiles": "COc1cccc(CNC(=O)c2cc(C(=O)NCc3ccc(NC(=O)NS(=O)(=O)c4ccccc4)cc3)ncn2)c1", "note": "[Example 121]", "IC50": 30}, {"smiles": "COc1cccc(CNC(=O)c2cc(C(=O)NCc3ccc(C(=O)N4CCN(C)CC4)cc3)ncn2)c1", "note": "[Example 114]", "IC50": 50}, {"smiles": "COc1cccc(CNC(=O)c2cc(C(=O)NCc3cccc(NC(=O)NS(C)(=O)=O)c3)ncn2)c1", "note": "[Example 88]", "IC50": 33}, {"smiles": "O=C(NCc1ccc2c(c1)CCO2)c1cc(C(=O)NCc2cc(Cl)cs2)ncn1", "note": "[Example 129]", "IC50": 22}, {"smiles": "O=C(NCc1ccc(C(=O)N2CCOCC2)cc1)c1cc(C(=O)NCc2ccc3c(c2)CCO3)ncn1", "note": "[Example 5, Pyrimidine-4,6-dicarboxylic acid 4-[(2,3-dihydrobenzofuran-5-ylmethyl)amide]6-[4-(morpholine-4-carbonyl)benzylamide]]", "IC50": 8}, {"smiles": "O=C(NCc1cccnc1)c1cc(C(=O)NCc2ccc3c(c2)OCCO3)ncn1", "note": "[Example 44]", "IC50": 200}, {"smiles": "O=C(NCc1ccc(C(=O)N2CCSCC2)cc1)c1cc(C(=O)NCc2ccc3c(c2)CCO3)ncn1", "note": "[Example 72]", "IC50": 10}, {"smiles": "Cc1cc(CNC(=O)c2cc(C(=O)NCc3ccc4c(c3)OCCN4C)ncn2)ccc1F", "note": "[Example 112]", "IC50": 45}, {"smiles": "N#CNC(=O)c1ccc(CNC(=O)c2cc(C(=O)NCc3ccc4c(c3)CCO4)ncn2)cc1", "note": "[Example 85]", "IC50": 3.5}, {"smiles": "COc1cccc(CNC(=O)c2cc(C(=O)NCc3ccc(C(=O)NO)cc3)ncn2)c1", "note": "[Example 89]", "IC50": 18}, {"smiles": "Cc1cc(CNC(=O)c2cc(C(=O)NCc3ccc(C(=O)N4CCNC(=O)C4)cc3)ncn2)ccc1F", "note": "[Example 75]", "IC50": 70}, {"smiles": "O=C(NCc1ccncc1)c1ccc(CNC(=O)c2cc(C(=O)NCc3ccc4c(c3)CCO4)ncn2)cc1", "note": "[Example 82]", "IC50": 30}, {"smiles": "COc1cccc(CNC(=O)c2cc(C(=O)NCc3ccc(C(=O)NC4CCNCC4)cc3)ncn2)c1", "note": "[Example 109]", "IC50": 50}, {"smiles": "COc1cccc(CNC(=O)c2cc(C(=O)NCc3ccc(NC(=O)CN4CCCC4)cc3)ncn2)c1", "note": "[Example 128]", "IC50": 60}, {"smiles": "Cc1cc(CNC(=O)c2cc(C(=O)NCc3ccc(C(=O)NCCN4CCOCC4)cc3)ncn2)ccc1F", "note": "[Example 105]", "IC50": 23}, {"smiles": "O=C(NCCN1CCOCC1)c1ccc(CNC(=O)c2cc(C(=O)NCc3ccc4c(c3)CCO4)ncn2)cc1", "note": "[Example 122]", "IC50": 43}, {"smiles": "COc1cccc(CNC(=O)c2cc(C(=O)NCc3ccc(C(=O)NC(C)(C)C)cc3)ncn2)c1", "note": "[Example 96]", "IC50": 50}, {"smiles": "COC(=O)CNC(=O)c1ccc(CNC(=O)c2cc(C(=O)NCc3ccc(F)c(C)c3)ncn2)cc1", "note": "[Example 106]", "IC50": 40}, {"smiles": "COc1cccc(CNC(=O)c2cc(C(=O)NCc3ccc(C(=O)N4CCSCC4)cc3)ncn2)c1", "note": "[Example 71]", "IC50": 9}, {"smiles": "COc1cccc(CNC(=O)c2cc(C(=O)NCc3ccc(NC(=O)NC4CCCCC4)cc3)ncn2)c1", "note": "[Example 136]", "IC50": 20}, {"smiles": "Cc1cc(CNC(=O)c2cc(C(=O)NCc3ccc(C(=O)N4CCSCC4)cc3)ncn2)ccc1F", "note": "[Example 70]", "IC50": 24}, {"smiles": "O=C(NCCO)c1ccc(CNC(=O)c2cc(C(=O)NCc3ccc4c(c3)CCO4)ncn2)cc1", "note": "[Example 75a]", "IC50": 34}, {"smiles": "O=C(NCc1ccc(C(=O)N2CCC(O)CC2)cc1)c1cc(C(=O)NCc2ccc3c(c2)CCO3)ncn1", "note": "[Example 68]", "IC50": 22}, {"smiles": "CS(=O)(=O)NC(=O)Nc1ccc(CNC(=O)c2cc(C(=O)NCc3ccc(F)c(Cl)c3)ncn2)cc1", "note": "[Example 63]", "IC50": 9}, {"smiles": "CN1CCN(C(=O)c2ccc(CNC(=O)c3cc(C(=O)NCc4ccc5c(c4)CCO5)ncn3)cc2)CC1", "note": "[Example 119]", "IC50": 35}, {"smiles": "Cc1cc(CNC(=O)c2cc(C(=O)NCc3ccc(C(=O)NO)cc3)ncn2)ccc1F", "note": "[Example 93]", "IC50": 20}, {"smiles": "Cc1cc(CNC(=O)c2cc(C(=O)NCc3ccc(C(=O)NCCN4CCCC4)cc3)ncn2)ccc1F", "note": "[Example 99]", "IC50": 50}]}]}
